Columns and labels:
JAK1 = target: T1, JAK1 (Homo sapiens, UniProt P23458); assay: JAK1 enzyme inhibition test (LANCE method); format: biochemical; settings: for inhibition at 1 µM: read-out: Inhibitory rate (%) JAK1 1 μM
T1 construct: purchased Invitrogen
How it was run: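 TR-FRET (LANCE) kinase assay using JAK1 at 187.5 ng/mL, ULight-JAK1 peptide at 300 nM and ATP at 150 μM, given as solution concentrations before mixing. Buffer was 50 mM HEPES pH 7.5 with 10 mM MgCl2 and 2 mM DTT, and the reaction ran 1 h at room temperature. Eu anti-phosphotyrosine signal at 665 nm was expressed relative to a no-enzyme well, taken as 100% inhibition.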

Tyk2 = target: T2, Tyk2 (Homo sapiens, UniProt P29597); assay: Tyk2 enzyme inhibition test (LANCE method); format: biochemical; settings: for inhibition at 1 µM: read-out: Inhibitory rate (%) Tyk2 1 μM
T2 construct: purchased Invitrogen
How it was run: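 Recombinant Tyk2 (375 ng/mL stock) with ULight-JAK1 peptide (300 nM stock) and ATP (30 μM stock) in HEPES pH 7.5/MgCl2/EGTA/DTT buffer, 1 h at room temperature. Stopped with EDTA plus Eu-anti-phosphotyrosine antibody; TR-FRET read at 665 nm after 1 h. No-enzyme wells define 100% inhibition.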

T1 sequence (P23458 whole entry): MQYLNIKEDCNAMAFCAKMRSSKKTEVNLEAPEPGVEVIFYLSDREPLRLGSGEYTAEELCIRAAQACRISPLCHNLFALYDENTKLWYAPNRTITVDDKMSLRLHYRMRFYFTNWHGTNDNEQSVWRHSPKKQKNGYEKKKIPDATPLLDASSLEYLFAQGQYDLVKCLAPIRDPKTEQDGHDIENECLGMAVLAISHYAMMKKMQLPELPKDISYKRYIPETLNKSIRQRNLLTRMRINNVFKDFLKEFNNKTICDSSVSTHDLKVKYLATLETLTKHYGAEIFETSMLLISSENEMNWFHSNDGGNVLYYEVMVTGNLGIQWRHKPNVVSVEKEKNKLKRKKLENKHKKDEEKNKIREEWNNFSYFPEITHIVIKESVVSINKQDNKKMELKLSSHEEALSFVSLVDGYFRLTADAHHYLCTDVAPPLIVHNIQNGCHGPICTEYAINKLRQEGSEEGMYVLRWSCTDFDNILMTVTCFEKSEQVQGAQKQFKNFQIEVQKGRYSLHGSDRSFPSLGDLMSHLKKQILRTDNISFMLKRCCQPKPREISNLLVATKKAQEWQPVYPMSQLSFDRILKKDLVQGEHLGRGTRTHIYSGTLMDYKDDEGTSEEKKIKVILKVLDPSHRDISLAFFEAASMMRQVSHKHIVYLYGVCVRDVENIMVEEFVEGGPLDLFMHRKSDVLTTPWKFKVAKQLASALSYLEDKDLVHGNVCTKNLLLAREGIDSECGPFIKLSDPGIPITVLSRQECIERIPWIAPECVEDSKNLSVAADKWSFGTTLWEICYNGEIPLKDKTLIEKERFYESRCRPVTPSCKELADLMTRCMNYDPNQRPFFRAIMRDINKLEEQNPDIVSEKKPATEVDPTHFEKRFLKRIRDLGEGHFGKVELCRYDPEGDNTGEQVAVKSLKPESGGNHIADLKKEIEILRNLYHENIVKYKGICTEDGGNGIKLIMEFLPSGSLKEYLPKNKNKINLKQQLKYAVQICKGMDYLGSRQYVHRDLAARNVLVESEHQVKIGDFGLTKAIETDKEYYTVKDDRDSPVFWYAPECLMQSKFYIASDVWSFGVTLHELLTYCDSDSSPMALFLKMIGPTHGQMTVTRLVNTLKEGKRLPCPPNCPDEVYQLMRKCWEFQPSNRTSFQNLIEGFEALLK
T2 sequence (P29597 whole entry): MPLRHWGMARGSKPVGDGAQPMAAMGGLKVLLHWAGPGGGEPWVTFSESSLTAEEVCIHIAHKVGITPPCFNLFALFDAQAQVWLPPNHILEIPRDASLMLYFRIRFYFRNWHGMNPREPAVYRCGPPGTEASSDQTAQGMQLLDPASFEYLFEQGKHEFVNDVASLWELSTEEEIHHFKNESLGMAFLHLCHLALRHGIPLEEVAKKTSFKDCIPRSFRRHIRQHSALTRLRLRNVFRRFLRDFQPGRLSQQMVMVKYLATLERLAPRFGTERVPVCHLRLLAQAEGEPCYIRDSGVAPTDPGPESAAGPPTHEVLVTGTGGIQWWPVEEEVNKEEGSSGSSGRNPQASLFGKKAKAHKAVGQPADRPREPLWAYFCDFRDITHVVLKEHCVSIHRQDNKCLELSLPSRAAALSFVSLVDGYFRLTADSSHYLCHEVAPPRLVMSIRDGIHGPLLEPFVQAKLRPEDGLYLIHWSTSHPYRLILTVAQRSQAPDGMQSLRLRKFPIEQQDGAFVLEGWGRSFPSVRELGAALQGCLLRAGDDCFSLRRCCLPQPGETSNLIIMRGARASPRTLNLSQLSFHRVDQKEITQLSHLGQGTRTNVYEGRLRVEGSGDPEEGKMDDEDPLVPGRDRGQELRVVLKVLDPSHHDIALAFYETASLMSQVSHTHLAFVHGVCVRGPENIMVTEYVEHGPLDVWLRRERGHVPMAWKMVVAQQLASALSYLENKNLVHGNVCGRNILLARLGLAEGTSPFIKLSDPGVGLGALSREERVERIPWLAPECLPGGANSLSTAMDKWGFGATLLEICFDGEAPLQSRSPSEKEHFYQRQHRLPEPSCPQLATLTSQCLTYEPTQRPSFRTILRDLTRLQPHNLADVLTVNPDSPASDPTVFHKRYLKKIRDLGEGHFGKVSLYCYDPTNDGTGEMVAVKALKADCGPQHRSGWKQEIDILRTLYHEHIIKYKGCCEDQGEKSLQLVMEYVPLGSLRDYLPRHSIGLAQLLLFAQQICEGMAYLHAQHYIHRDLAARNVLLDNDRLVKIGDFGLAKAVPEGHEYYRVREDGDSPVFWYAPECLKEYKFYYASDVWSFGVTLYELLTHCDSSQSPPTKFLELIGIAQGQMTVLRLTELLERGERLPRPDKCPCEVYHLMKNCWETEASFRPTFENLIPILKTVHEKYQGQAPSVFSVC

Row | SMILES | inhibition at 1 µM (JAK1; test compound 1 μM) | inhibition at 1 µM (Tyk2; test compound 1 μM) | also measured
1 | CC(C)(C)n1nc(-c2ccc(S(N)(=O)=O)cc2)c2c(=O)[nH]ccc21 [Example 86, 4-(1-tert-butyl-4-oxo-4,5-dihydro-1H-pyrazolo[4,3-c]pyridin-3-yl)benzenesulfonamide] | 94% | 85% | –
2 | NS(=O)(=O)c1ccc(-c2nn(C3CCCOC3)c3cc[nH]c(=O)c23)cc1 (stereo not drawn) [Example 88, 4-(4-oxo-1-(tetrahydro-2H-pyran-3-yl)-4,5-dihydro-1H-pyrazolo[4,3-c]pyridin-3-yl)benzenesulfonamide] | – | – | Inhibitory rate (%) JAK1 1 μM (JAK1; test compound 1 μM): 96%; Inhibitory rate (%) Tyk2 1 μM (Tyk2; test compound 1 μM): 91%
3 | CC1(C)OCC(Cn2cc(-c3ccc(S(N)(=O)=O)cc3)c3c(=O)[nH]ccc32)O1 (stereo not drawn) [Example 90, 4-(1-((2,2-dimethyl-1,3-dioxolan-4-yl)methyl)-4-oxo-4,5-dihydro-1H-pyrrolo[3,2-c]pyridin-3-yl)benzenesulfonamide] | – | – | inhibition at 10 µM (JAK1; test compound 10 μM, read-out: Inhibitory rate (%) JAK1 10 μM): 38%; inhibition at 10 µM (Tyk2; test compound 10 μM, read-out: Inhibitory rate (%) Tyk2 10 μM): 22%
4 | NS(=O)(=O)c1ccc(-c2cn(CC(O)CO)c3cc[nH]c(=O)c23)cc1 (stereo not drawn) [Example 91, 4-(1-(2,3-dihydroxypropyl)-4-oxo-4,5-dihydro-1H-pyrrolo[3,2-c]pyridin-3-yl)benzenesulfonamide] | 19% | 92% | –
5 | NS(=O)(=O)c1ccc(-c2nn(C3CCCC3)c3cc[nH]c(=O)c23)cc1 [Example 92, 4-(1-cyclopentyl-4-oxo-4,5-dihydro-1H-pyrazolo[4,3-c]pyridin-3-yl)benzenesulfonamide] | 100% | 99% | –
6 | N#CCc1cc(-c2cn(C3CCCC3)c3c(C#N)c[nH]c(=O)c23)cs1 [Example 93, 3-(5-(cyanomethyl)-3-thienyl)-1-cyclopentyl-4-oxo-4,5-dihydro-1H-pyrrolo[3,2-c]pyridine-7-carbonitrile] | 98% | 99% | –
7 | N#CCc1ccc(-c2cn(C3CCCC3)c3c(C#N)c[nH]c(=O)c23)cc1 [Example 96, 3-(4-(cyanomethyl)phenyl)-1-cyclopentyl-4-oxo-4,5-dihydro-1H-pyrrolo[3,2-c]pyridine-7-carbonitrile] | 94% | 99% | –
8 | CC1(Cn2nc(-c3ccc(S(N)(=O)=O)cc3)c3c(=O)[nH]ccc32)COC1 [Example 100, 4-(1-((3-methyloxetan-3-yl)methyl)-4-oxo-4,5-dihydro-1H-pyrazolo[4,3-c]pyridin-3-yl)benzenesulfonamide] | 96% | 77% | –
9 | NS(=O)(=O)c1ccc(-c2nn(C3CCCC3)c3c(Br)c[nH]c(=O)c23)cc1 [Example 101, 4-(7-bromo-1-cyclopentyl-4-oxo-4,5-dihydro-1H-pyrazolo[4,3-c]pyridin-3-yl)benzenesulfonamide] | 80% | 91% | –
10 | Cc1ccccc1-c1cn(-c2csc(C(N)=O)c2)c2c(=O)[nH]cc(C#N)c12 [Example 102, 4-(4-cyano-3-(2-methylphenyl)-7-oxo-6,7-dihydro-1H-pyrrolo[2,3-c]pyridin-1-yl)thiophene-2-carboxamide] | 67% | 94% | –
11 | N#Cc1c[nH]c(=O)c2c(-c3ccccc3)cn(C3CCCC3)c12 [Example 103, 1-cyclopentyl-4-oxo-3-phenyl-4,5-dihydro-1H-pyrrolo[3,2-c]pyridine-7-carbonitrile] | 48% | 91% | –
12 | N#CCc1ccc(-c2nn(-c3c(F)cccc3F)c3c(Br)c[nH]c(=O)c23)cc1 [Example 104, (4-(7-bromo-1-(2,6-difluorophenyl)-4-oxo-4,5-dihydro-1H-pyrazolo[4,3-c]pyridin-3-yl)phenyl)acetonitrile] | 94% | 99% | –
13 | CN(C)C(=O)c1cc(-c2cn(C3CCCC3)c3c(C#N)c[nH]c(=O)c23)cs1 [Example 107, 4-(7-cyano-1-cyclopentyl-4-oxo-4,5-dihydro-1H-pyrrolo[3,2-c]pyridin-3-yl)-N,N-dimethylthiophene-2-carboxamide] | 96% | 98% | –
14 | CNC(=O)c1cc(-c2cn(C3CCCC3)c3c(C#N)c[nH]c(=O)c23)cs1 [Example 108, 4-(7-cyano-1-cyclopentyl-4-oxo-4,5-dihydro-1H-pyrrolo[3,2-c]pyridin-3-yl)-N-methylthiophene-2-carboxamide] | 99% | 100% | –
15 | N#CCc1cccc(-c2cn(C3CCCC3)c3c(C#N)c[nH]c(=O)c23)c1 [Example 109, 3-(3-(cyanomethyl)phenyl)-1-cyclopentyl-4-oxo-4,5-dihydro-1H-pyrrolo[3,2-c]pyridine-7-carbonitrile] | 61% | 94% | –
16 | N#Cc1c[nH]c(=O)c2c(-c3cccc(CC(N)=O)c3)cn(C3CCCC3)c12 [Example 110, 2-(3-(7-cyano-1-cyclopentyl-4-oxo-4,5-dihydro-1H-pyrrolo[3,2-c]pyridin-3-yl)phenyl)acetamide] | 46% | 91% | –
17 | NC(=O)Cc1ccc(-c2nn(-c3c(F)cccc3F)c3c(Br)c[nH]c(=O)c23)cc1 [Example 112, 2-(4-(7-bromo-1-(2,6-difluorophenyl)-4-oxo-4,5-dihydro-1H-pyrazolo[4,3-c]pyridin-3-yl)phenyl)acetamide] | 89% | 98% | –
18 | NC(=O)c1cc(-n2nc(C3CCCC3)c3cc[nH]c(=O)c32)cs1 [Example 117, 4-(3-cyclopentyl-7-oxo-6,7-dihydro-1H-pyrazolo[3,4-c]pyridin-1-yl)thiophene-2-carboxamide] | 99% | 98% | –

Second part, led by results:

Row | inhibition at 1 µM (JAK1; test compound 1 μM) | inhibition at 1 µM (Tyk2; test compound 1 μM) | SMILES | also measured
19 | 99% | 96% | NS(=O)(=O)c1ccc(-c2nn(C3CCCOC3)c3cc[nH]c(=O)c23)cc1 (stereo not drawn) [Example 87, 4-(4-oxo-1-(tetrahydro-2H-pyran-3-yl)-4,5-dihydro-1H-pyrazolo[4,3-c]pyridin-3-yl)benzenesulfonamide] | –
20 | 64% | 94% | N#Cc1c[nH]c(=O)c2c(-c3cccc(C(N)=O)c3)cn(C3CCCC3)c12 [Example 89, 3-(7-cyano-1-cyclopentyl-4-oxo-4,5-dihydro-1H-pyrrolo[3,2-c]pyridin-3-yl)benzamide] | –
21 | 80% | 78% | COc1ccc(Cn2nc(-c3ccc(S(N)(=O)=O)cc3)c3c(=O)[nH]ccc32)cc1 [Example 94, 4-(1-(4-methoxybenzyl)-4-oxo-4,5-dihydro-1H-pyrazolo[4,3-c]pyridin-3-yl)benzenesulfonamide] | –
22 | 86% | 98% | N#Cc1c[nH]c(=O)c2c(-c3ccc(CC(N)=O)cc3)cn(C3CCCC3)c12 [Example 95, 2-(4-(7-cyano-1-cyclopentyl-4-oxo-4,5-dihydro-1H-pyrrolo[3,2-c]pyridin-3-yl)phenyl)acetamide] | –
23 | 97% | 99% | N#Cc1c[nH]c(=O)c2c(-c3csc(CC(N)=O)c3)cn(C3CCCC3)c12 [Example 97, 2-(4-(7-cyano-1-cyclopentyl-4-oxo-4,5-dihydro-1H-pyrrolo[3,2-c]pyridin-3-yl)-2-thienyl)acetamide] | –
24 | 78% | 97% | N#Cc1c[nH]c(=O)c2c(-c3cnn(CC(N)=O)c3)cn(C3CCCC3)c12 [Example 98, 2-(4-(7-cyano-1-cyclopentyl-4-oxo-4,5-dihydro-1H-pyrrolo[3,2-c]pyridin-3-yl)-1H-pyrazol-1-yl)acetamide] | –
25 | 97% | 99% | N#CCn1cc(-c2cn(C3CCCC3)c3c(C#N)c[nH]c(=O)c23)cn1 [Example 99, 3-(1-(cyanomethyl)-1H-pyrazol-4-yl)-1-cyclopentyl-4-oxo-4,5-dihydro-1H-pyrrolo[3,2-c]pyridine-7-carbonitrile] | –
26 | 88% | 66% | NS(=O)(=O)c1ccc(-c2nn(CC3COC3)c3cc[nH]c(=O)c23)cc1 [Example 105, 4-(1-(oxetan-3-ylmethyl)-4-oxo-4,5-dihydro-1H-pyrazolo[4,3-c]pyridin-3-yl)benzenesulfonamide] | –
27 | 91% | 98% | N#Cc1c[nH]c(=O)c2c(-c3ccsc3)cn(C3CCCC3)c12 [Example 106, 1-cyclopentyl-4-oxo-3-(3-thienyl)-4,5-dihydro-1H-pyrrolo[3,2-c]pyridine-7-carbonitrile] | –
28 | 96% | 99% | N#Cc1c[nH]c(=O)c2c(-c3cn[nH]c3)cn(C3CCCC3)c12 [Example 111, 1-cyclopentyl-4-oxo-3-(1H-pyrazol-4-yl)-4,5-dihydro-1H-pyrrolo[3,2-c]pyridine-7-carbonitrile] | –
29 | 87% | 66% | NS(=O)(=O)c1ccc(-c2nn(CC3CCOC3)c3cc[nH]c(=O)c23)cc1 (stereo not drawn) [Example 115, 4-(4-oxo-1-(tetrahydrofuran-3-ylmethyl)-4,5-dihydro-1H-pyrazolo[4,3-c]pyridin-3-yl)benzenesulfonamide] | –
30 | 89% | 99% | N#CCc1ccc(-c2nn(-c3c(F)cccc3F)c3c(Cl)c[nH]c(=O)c23)cc1 [Example 116, (4-(7-chloro-1-(2,6-difluorophenyl)-4-oxo-4,5-dihydro-1H-pyrazolo[4,3-c]pyridin-3-yl)phenyl)acetonitrile] | –

Reference: patent US9371320B2, “Heterocyclic compound” (TAKEDA PHARMACEUTICAL COMPANY LIMITED, priority 2012, dated 2016)
